Test results as given in patent publication US12038432B2, “Organoids related to immunotherapy and methods of preparing and using the same” (Wake Forest University Health Sciences, priority 2018, dated 2024).
“Also recorded” adds a separate entry of the source.

How the values were obtained:
[1] = system: PTOs derived from a melanoma patient (Non-Responder); assay: LIVE/DEAD imaging of tumor organoids derived from a non-responder melanoma patient; format: cell-based, human; conditions: FIG. 1C
Protocol: (§1) Drug screen output metrics: Drugs will be administered for 48 hours, after which efficacy will be determined as follows; specifically, viability of cells will be assessed by (LIVE/DEAD), number of viable cells alone, number of viable cells versus dead cells, mitochondrial metabolism (MTS), LDH quantification (positive in tumor cells), and IHC (colocalization of fluorescently labeled immune cells with apoptotic, proliferative, and tumor cell markers).

[2] = system: low-grade appendiceal tumor-node organoids; assay: LIVE/DEAD imaging of appendiceal tumor organoids with and without node cells; format: cell-based, human; conditions: FIG. 1B; for LIVE/DEAD imaging, drug effectiveness: appendiceal tumor organoids with and without node cells; for cell death (LIVE/DEAD staining): low-grade appendiceal tumor-node organoids
Protocol: as §1

melanoma tumor organoid = assay: Drug screen, cell viability of melanoma tumor organoid with or without lymph node cells (FIG. 5); format: cell-based, human; conditions: decrease observed only when the organoid included both tumor cells and lymph node cells
Protocol: Organoid-device integration: HA and gelatin/collagen components are mixed with cells, as well as a crosslinker and photoinitiator for photopolymerization in situ. Cells are added to the gel precursor preferably at a density of 20 million cells/mL or higher, after which the cell-gel mixture introduced to the microfluidic chambers sequentially and patterning is accomplished using a positive-tone photomask to define shape and location of constructs (FIG. 3B). For the proposed studies, each device will contain series of 2 chamber circuits in which one chamber will be formed a tumor organoid and in the other will be formed a lymph node organoid. Alternatively, both organoids can exist separately, but in the same chamber (FIG. 2). In another form factor, tumor cells and immune cells can be photopatterned into the device as adjacent regions, in which for the immune cells to successfully target the tumor cells, they are forced to recognize tumor cell antigens, activate, and migrate to the tumor region. (FIGS. 4A-4C). […]
Drug screen output metrics: Drug efficacy will be determined by: viability of cells (LIVE/DEAD), number of viable cells alone, number of viable cells versus dead cells, mitochondrial metabolism (MTS), LDH quantification (positive in tumor cells), and IHC (Annexin V vs. KI67-apoptotic vs. proliferative markers).

PTOs = assay: Exposure of patient tumor organoids (PTOs) to immune checkpoint inhibitors, tolerance; format: cell-based; conditions: ~100 nM concentrations; unless immune cells are activated
From the text: Potential immune checkpoint inhibitor treatment. […] Concentrations of these two widely-used PD-1 inhibitors and one widely-used CTLA-4 inhibitor will be derived from clinical treatment guidelines and scaled to the volume of the PTO.

[3] = system: colorectal tumor-node organoids; assay: Mitochondrial metabolism of colorectal patient tumor organoids with or without matched lymph node immune cells; format: cell-based, human; conditions: integrated colorectal tumor-node organoids; seen only when immune cells are present; FIG. 1A
Protocol: as §1, with “markers). […] This was not expected given the BRAF wild status of the patient. […] The alternative therapy was identified by PTO screen more than 4 weeks prior to genomic sequencing that verified a MEK mutation, thus qualifying the patient for trametinib.” for “markers).”

melanoma = assay: Clinical response of melanoma patients to treatment; format: in vivo, human; conditions: stage III and IV melanoma patients of Example 7
[4] = system: 3D patient-specific mixed melanoma/node organoids; assay: Personalized immunotherapy screening on mixed melanoma/node organoids (live/dead staining and metabolism assays); format: cell-based, human; conditions: fourth patient's mixed melanoma/node organoids; 72 hours
From the text: Methods: Surgically obtained matched melanoma and lymph node biospecimens from the same patient were transferred to the laboratory, washed with saline, antibiotic, and red blood cell lysis buffer. Biospecimens were dissociated, and incorporated into an ECM-based hydrogel system and biofabricated into 3D patient-specific mixed melanoma/node organoids. Cells were not sorted for tumor, as to preserve tumor heterogeneity, including stroma and immune cell components. […] Quantification of live/dead staining and metabolism assays, recorded relative drug efficacy in killing melanoma cells for a particular patient. Light microscopy, IHC and next generation sequencing (NGS) were used to compare tumor melanoma cells with organoid melanoma cells.

Substance | organoid response (LIVE/DEAD staining) [1] | organoid response (LIVE/DEAD staining) ([1]; listed as dabrafenib and trametinib) | LIVE/DEAD imaging, drug effectiveness [2] | cell death (LIVE/DEAD staining) [2] | organoid viability, measured by overall metabolic activity (melanoma tumor organoid) | effect on the PTOs (PTOs) | mitochondrial metabolism [3] | patient clinical response (melanoma) | melanoma killing [4]
ipilimumab [ipilumimab] | did not respond | – | – | – | – | – | – | – | –
dabrafenib and trametinib [dabrafenic/trametinib] | increased DEAD staining | did respond | – | – | – | – | – | – | –
pembrolizumab | did not respond | – | effective only when immune cell (lymph) population was incorporated | increases in cell death | significant decrease | no negative effect | – | – | –
nivolumab | – | – | effective only when immune cell (lymph) population was incorporated | increases in cell death | significant decrease | no negative effect | an increase in mitochondrial metabolism; also recorded: Increased metabolism | clinically progressed | 50%
